The record followed here is patent US10041047B2, “Compositions and methods for epithelial stem cell expansion and culture” (The Brigham and Women's Hospital, Inc., priority 2013, dated 2018).

The test system of experiment [1] is Lgr5+ stem cells in small intestinal crypts. Nature of the experiment: Small intestinal crypt culture from Lgr5-GFP mice in Matrigel: cell proliferation and Lgr5-GFP expression. The class given is cell-based, mouse. The conditions noted are these: for effect to promote GFP expression: HDAC inhibitor added to ENR-C condition, 6 day crypt cultures, compared with VPA. As for the experimental part: Crypts and single Lgr5-GFP cells were isolated as previously described (Sato et al., 2009). Briefly, the proximal half of the small intestine was harvested, opened longitudinally, and washed with cold PBS to remove luminal content. The tissue was then cut into 2-4 mm pieces with scissors and further washed 5-10 times with cold PBS by pipetting up and down using a 10-ml pipette. Tissue fragments were incubated with 2 mM EDTA in PBS for 30 min on ice. After removal of EDTA, tissue fragments were washed with PBS to release crypts. Supernatant fractions enriched in crypts were collected, passed through a 70 μm cell strainer and centrifuged at 300 g for 5 minutes. The cell pellet was re-suspended with cell culture media without growth factors and centrifuged at 150 g to remove single cells. Crypts were then cultured or used for single cell isolation. To obtain single cells, crypts were incubated in culture medium for 45 minutes at 37° C. and triturated with a glass pipette. Dissociated cells were passed through 20 μm cell strainer, negative stained with propidium iodide and single viable GFP-high cells were sorted by flow cytometry (FACS Aria, BD) as previously described (Sato et al., 2009). Small intestinal crypts isolated from Lgr5-EGFP-ires-CreERT2 mice were embedded in Matrigel and cultured under conventional culture conditions in the presence of EGF, Noggin and R-spondin 1 (collectively referred to as ENR) leading to organoids with crypts and villus-like domains and GFP^+ cells at the crypt tips, consistent with previous reports (Sato et al., 2009). Isolated crypts or single cells were cultured as previously described (Sato et al., 2009) with minimal modification. Briefly, crypts or single cells were entrapped in Matrigel and plated at the center of wells in a 24-well plate. After polymerization of Matrigel (growth factor reduced; BD Bioscience), 500 μl of culture medium (Advanced DMEM/F12 (Life Technologies)) was added containing growth factors including EGF (50 ng/ml, Life Technologies), Noggin (100 ng/ml, Peprotech) and R-spondin 1 (500 ng/ml, R&D) and small molecules including CHIR99021 (3 μM, Stemgent) and Valproic Acid (1 mM, Sigma-Aldrich). For comparison of different culture conditions, small molecules or growth factors were added to freshly isolated crypts immediately after plating in Matrigel to test the ability to minimize potential differentiation of the ISC within the crypts and thus sustain crypt cultures. Cell culture media was changed every other day. For single cell culture, cells were embedded in Matrigel containing Jagged-1 peptide (1 μM; AnaSpec) and Y-27632 (10 μM; Tocris) was added for the first 2 days. Cells were passaged either as cell colonies as previously described (Sato et al., 2009) or as single cells. For single cell passage, cell culture medium was removed and Accutase (Life Technologies) was added. After incubation at 37° C. for 10-20 minutes, cell colonies were dissociated into single cells by pipetting. Cells were then washed, embedded in fresh Matrigel and plated into 24-well plates. Cells cultured in the CV condition were passaged every 6 days at a 1:20 split ratio. Approximately half of the cultured crypts contained GFP+ cells, which is consistent with the in vivo GFP expression of Lgr5-GFP mice (FIG. 1).
The growth factors used in the ENR condition provide essential, but not adequate cues to sustain the self-renewal of Lgr5^+ stem cells. To identify factors essential to maintaining the self-renewal status of intestinal stem cells, selected small molecules that modulate signaling pathways of ISCs, such as Wnt, Notch, and BMP, were tested under the ENR condition, using the Lgr5-GFP reporter.
CHIR is a highly-specific GSK3 inhibitor that activates the Wnt/β-catenin signaling pathway (Bain et al., 2007), and has been used to maintain the self-renewal state of embryonic stem cells (Ying et al., 2008). […]

A further experiment has as its system Lgr5+ stem cells. Put plainly: Controlled differentiation of Lgr5+ stem cells after CV culture (RT-PCR and staining of differentiation markers). Type of experiment: cell-based, mouse. The conditions noted are these: colonies from 6 days CV, then 4 days with ENR plus agents (FIG. 7B).
The subject of experiment [2] is human small intestinal crypts. Put plainly: Culture of human small intestinal crypts: LGR5 expression (RT-PCR) and cell number. The class given is cell-based. The text has this:
Human small intestinal crypts were isolated from a resected normal small intestinal specimen and cultured as described in Example 1. The same cell culture solutions used in the culture of mouse small intestinal stem cells/crypts, which comprise a combination of CHIR99021 and VPA or Tubastatin A added to the ENR (EGF, Noggin, R-Spondin 1) condition, were compared to published cell culture solutions for human intestinal stem cells/crypts (Jung et al., 2011; Sato et al., 2011). RT-PCR was used to assess the maintenance of epithelial stem cells in the culture, specifically by determining the self-renewal or differentiation status. LGR5 was used as a stem cell marker and ALPI, MUC2, CHGA and LYZ were used as differentiation markers. Cell growth was assessed by counting the cell number in the cultures and by observing the morphology and size of colonies.

Experiment [3] has as its system Lgr5+ stem/progenitor cells derived from the mouse inner ear. Nature of the experiment: Culture of inner ear (cochlear) Lgr5-GFP epithelial cells in Matrigel. As to conditions: 8 day cultures; for cell proliferation on addition of a growth factor: EGF added to CV, others added to EGF+CV (FIG. 14D); for GFP expression on addition of a growth factor: added to EGF+CV or to the EGF+bFGF combination (FIG. 14D, 14E). Type of experiment: cell-based. An excerpt: The same culture condition (EGF, Noggin, R-spondin1, or “ENR”) as used in Lgr5+ small intestinal stem cell cultures was first established.
Isolated organ of Corti from Lgr5-GFP mice were dissociated into single cells using accutase and cultured in multiple combinations of soluble factors and small molecules in Matrigel for 8 days. The resulting cultures were further dissociated into single cells and analyzed using FACS. […] In addition, the combination of EGF, bFGF and IGF-1 (designated as EFI) improved cell proliferation and GFP expression compared with the ENR condition (FIG. 14A-14C).
To further investigate the effects of individual growth factors when combined with CHIR and VPA, growth factors including Mitogenic growth factors (EGF, bFGF and IGF-1) as well as the Wnt agonist R-spondin 1 in combination with CHIR and VPA were tested.

The mark [4] stands for this setting: ENR-C condition with DAPT 5 μM, 3 days.
Where [5] appears, read: combined with CHIR or Wnt3a, crypts 6 days (FIG. 9F).
[6] abbreviates: multiple concentrations (FIG. 9E).

On to `CCCC(=O)[O-].[Na+]` [Butyrate, Sodium butyrate], for which, in experiment [1], the “effect to promote GFP expression” value is “no or only moderate effects”.

For the molecule `CC(=O)Nc1ccc(C(=O)Nc2ccccc2N)cc1` [CI-994], in experiment [1], the “effect to promote GFP expression” value is “no or only moderate effects”.

In the case of `C[C@H](NC(=O)Cc1cc(F)cc(F)c1)C(=O)N[C@H](C(=O)OC(C)(C)C)c1ccccc1` [DAPT, N-[N-(3,5-Difluorophenacetyl)-L-alanyl]-S-phenylglycine t-butyl ester], in experiment [1] (setting [4]), the GFP expression entry is given as “impaired” and the cell proliferation result is given as “impaired”. In the experiment with Lgr5+ stem cells, the Alpi expression result is recorded as “induced expression”, the ChgA expression entry was “greatly elevated”, the Lgr5 expression result is listed as “decreased” and the Lysozyme expression result was “greatly elevated”. Moreover, the Muc2 expression entry in the experiment on Lgr5+ stem cells is recorded as “greatly elevated”.

For the molecule `Cc1ccc2nc(NC(=O)CSc3nc4c(c(=O)n3-c3ccccc3)SCC4)sc2c1` [IWP-2, N-(6-Methyl-2-benzothiazolyl)-2-[(3,4,6,7-tetrahydro-4-oxo-3-phenylthieno[3,2-d]pyrimidin-2-yl)thio]-acetamide], in the experiment with Lgr5+ stem cells, the Alpi expression result is “preferentially induced”, the ChgA expression entry is reported as “modestly elevated”, the Lgr5 expression entry is on record as “completely abolished” and the Lysozyme expression result is given as “completely abolished”. Further, in the experiment on Lgr5+ stem cells, the Muc2 expression entry is recorded as “modestly elevated”.

In the case of `Cn1c(/C=C/C(=O)NO)ccc1/C=C/C(=O)c1cccc(F)c1` [MC1568], the “effect to promote GFP expression” value in experiment [1] is “no or only moderate effects”.

Regarding `Nc1ccccc1NC(=O)c1ccc(CNC(=O)OCc2cccnc2)cc1` [MS275], the “effect to promote GFP expression” value in experiment [1] is reported as “no or only moderate effects”.

In the case of `NC(=O)c1cccnc1` [Nicotinamide], in experiment [1], the “effect to promote GFP expression” value is “no or only moderate effects”. For the same molecule, in experiment [1] (setting [5]), the GFP expression entry is recorded as “did not promote” and the cell proliferation entry is “did not promote”. Further, in experiment [2] (added to ENR (or to the CHIR+VPA condition), RT-PCR), the “expression of stem cell marker LGR5” value is given as “without great impact”. For the same molecule, in experiment [2] (cell numbers at day 9 after seeding (FIG. 25A)), the “proliferation of human small intestinal crypts (cell number)” value is listed as “increased the proliferation”.

Take `O=C(CCCCCCC(=O)NO)NO` [SBHA, Suberohydroxamic acid]: the “effect to promote GFP expression” value in experiment [1] was “no or only moderate effects”.

As for `CC(/C=C/C(=O)NO)=C\[C@@H](C)C(=O)c1ccc(N(C)C)cc1` [TSA, Trichostatin A], in experiment [1] (setting [6]), the “GFP expression at multiple concentrations” value is recorded as “maintained GFP expression” and the “cell proliferation at higher concentration” value was “marked proliferation inhibition effect”.

Take EGF: Epidermal Growth Factor: in experiment [1] (crypts 6 days in the CV condition (CHIR 3 μM, VPA 1 mM)), the “requirement of growth factor to maintain self-renewal of Lgr5+ stem cells” value was “could be removed from the culture without impacting maintenance”. Further, the proliferation of crypts entry in experiment [1] (growth factor in the CV condition, 6 days) is “promoted the proliferation”. Moreover, the “cell proliferation on addition of a growth factor” value in experiment [3] was “greatly increased”.

In the case of IGF-1: mitogenic growth factor, the “GFP expression on addition of a growth factor” value in experiment [3] is on record as “slightly increased”.

As to bFGF: mitogenic growth factor, in experiment [3], the “cell proliferation on addition of a growth factor” value is reported as “further increased” and the “GFP expression on addition of a growth factor” value is “further increased”.
